Columns and labels:
Bcl-xL = Bcl-xL (Homo sapiens (Human), UniProt Q07817); assay: Bcl-xL/Bim Fluorescence Resonance Energy Transfer Assay (FRET); format: binding
Summary of the method: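 Biotin-Bcl-xL was incubated with Bim and compound at eleven concentrations for 60 min at room temperature. Streptavidin-terbium detection was then added for 30 min in the dark, and FRET was read. IC50 values were obtained by non-linear regression.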

Bcl-2 = Bcl-2 (Homo sapiens (Human), UniProt P10415); assay: Bcl-2/Bim Fluorescence Polarization Assay (FPA); format: binding
Chain of Bcl-2 (P10415 whole entry): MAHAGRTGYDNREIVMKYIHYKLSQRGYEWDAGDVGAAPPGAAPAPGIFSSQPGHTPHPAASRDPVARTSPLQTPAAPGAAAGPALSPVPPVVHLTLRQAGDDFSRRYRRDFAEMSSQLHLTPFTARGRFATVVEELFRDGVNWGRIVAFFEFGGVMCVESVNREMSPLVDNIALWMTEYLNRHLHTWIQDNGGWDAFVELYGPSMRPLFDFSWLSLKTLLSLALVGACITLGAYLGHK

Chain of Bcl-xL (Q07817 whole entry): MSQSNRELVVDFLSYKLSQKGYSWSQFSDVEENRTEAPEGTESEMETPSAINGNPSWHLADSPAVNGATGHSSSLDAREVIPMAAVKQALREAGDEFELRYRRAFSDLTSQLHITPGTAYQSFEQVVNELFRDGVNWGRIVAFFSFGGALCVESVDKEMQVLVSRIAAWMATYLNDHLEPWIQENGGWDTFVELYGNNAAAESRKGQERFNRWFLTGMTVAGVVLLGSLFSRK

SMILES | IC50 (Bcl-xL) [nM] | IC50 (Bcl-2) [nM]
CCCCN(CCCC)C(=O)c1cn(C)c(-c2ccc(C(=O)NS(=O)(=O)c3ccc4ccccc4c3)cc2C(=O)N2CCc3ccccc3C2)n1 [Example 264, N,N-Dibutyl-1-methyl-2-(4-(naphthalen-2-ylsulfonylcarbamoyl)-2-(1,2,3,4-tetrahydroisoquinoline-2-carbonyl)phenyl)-1H-imidazole-4-carboxamide] | 40 | 110
CCCCN(CCCC)C(=O)c1cccc(-c2ccc(C(=O)NS(=O)(=O)c3ccc4ccccc4c3)cc2C(=O)N2CCc3ccccc3C2)n1 [Example 286, N,N-Dibutyl-6-(4-(naphthalen-2-ylsulfonylcarbamoyl)-2-(1,2,3,4-tetrahydroisoquinoline-2-carbonyl)phenyl)picolinamide] | 70 | 600
CCCCN(CCCC)c1ccc(Br)c(-c2ccc(C(=O)NS(=O)(=O)c3ccc4cccc(Cl)c4c3)cc2C(=O)N2CCc3ccccc3C2)n1 [Example 289, 4-(3-Bromo-6-(dibutylamino)pyridin-2-yl)-N-(8-chloronaphthalen-2-ylsulfonyl)-3-(1,2,3,4-tetrahydroisoquinoline-2-carbonyl)benzamide] | 60 | 10
CCCCN(CCCC)c1ncc(Cl)c(-c2ccc(C(=O)NS(=O)(=O)c3ccc4ccccc4c3)cc2C(=O)N2Cc3ccccc3C[C@H]2CO)n1 [Example 315, 4-(5-Chloro-2-(dibutylamino)pyrimidin-4-yl)-3-((S)-3-(hydroxymethyl)-1,2,3,4-tetrahydroisoquinoline-2-carbonyl)-N-(naphthalen-2-ylsulfonyl)benzamide] | 80 | 60
CCCN(CCC)c1ncc(Cl)c(-c2ccc(C(=O)NS(=O)(=O)c3ccc4cccc(Cl)c4c3)cc2C(=O)N2Cc3ccccc3C[C@H]2CO)n1 [Example 328, 4-(5-Chloro-2-(dipropylamino)pyrimidin-4-yl)-N-(8-chloronaphthalen-2-ylsulfonyl)-3-((S)-3-(hydroxymethyl)-1,2,3,4-tetrahydroisoquinoline-2-carbonyl)benzamide] | 10 | 8.78
CCCN(CCC)c1ncc(Cl)c(-c2ccc(C(=O)NS(=O)(=O)c3ccc4cccc(Cl)c4c3)cc2C(=O)N2Cc3ccccc3C[C@H]2CN)n1 [Example 329, 3-((S)-3-(Aminomethyl)-1,2,3,4-tetrahydroisoquinoline-2-carbonyl)-4-(5-chloro-2-(dipropylamino)pyrimidin-4-yl)-N-(8-chloronaphthalen-2-ylsulfonyl)benzamide] | 20 | 5.09

The remaining molecules from weak to strong by IC50 (Bcl-xL), led by results:

IC50 (Bcl-xL) [nM] | IC50 (Bcl-2) [nM] | SMILES
160 | 10 | CCCCN(Cc1ccc(Cl)c(Cl)c1)c1ncc(Cl)c(-c2ccc(C(=O)NS(=O)(=O)c3ccc4cccc(Cl)c4c3)cc2C(=O)N2CCc3ccccc3C2)n1 [Example 322, 4-(2-(Butyl (3,4-dichlorobenzyl)amino)-5-chloropyrimidin-4-yl)-N-(8-chloronaphthalen-2-ylsulfonyl)-3-(1,2,3,4-tetrahydroisoquinoline-2-carbonyl)benzamide]
70 | 430 | CCCCN(CCCC)C(=O)c1cn(CC(=O)NC)c(-c2ccc(C(=O)NS(=O)(=O)c3ccc4ccccc4c3)cc2C(=O)N2CCc3ccccc3C2)n1 [Example 265, N,N-Dibutyl-1-(2-(methylamino)-2-oxoethyl)-2-(4-(naphthalen-2-ylsulfonylcarbamoyl)-2-(1,2,3,4-tetrahydroisoquinoline-2-carbonyl)phenyl)-1H-imidazole-4-carboxamide]
30 | 140 | CCCCN(CCCC)C(=O)c1cn(CC(=O)O)c(-c2ccc(C(=O)NS(=O)(=O)c3cccc4ccccc34)cc2C(=O)N2CCc3ccccc3C2)n1 [Example 269, 2-(4-(Dibutylcarbamoyl)-2-(4-(naphthalen-1-ylsulfonylcarbamoyl)-2-(1,2,3,4-tetrahydroisoquinoline-2-carbonyl)phenyl)-1H-imidazol-1-yl)acetic acid]
10 | 6.97 | CCCCN(CCCC)C(=O)c1cn(C)c(-c2ccc(C(=O)NS(=O)(=O)c3ccc4cccc(I)c4c3)cc2C(=O)N2Cc3ccccc3C[C@H]2CN)n1 [Example 282, 2-(2-((S)-3-(Aminomethyl)-1,2,3,4-tetrahydroisoquinoline-2-carbonyl)-4-(8-iodonaphthalen-2-ylsulfonylcarbamoyl)phenyl)-N,N-dibutyl-1-methyl-1H-imidazole-4-carboxamide]
